Read-outs that look alike come from different tables or passages of the source.
Assays:
mast cells = assay: Histamine release assay (compound 48/80 stimulated mast cells); format: cell-based, Wistar rats; details: 2 × 10^−5 M, rat peritoneal mast cells; for inhibition at 20 µM: Rattus norvegicus, Mast cell, read-out: Percentage Inhibition of Histamine Release
Protocol: (§1) The compounds were assessed for their ability to stabilize mast cell membranes in vitro. Mast cells treated with the compounds and un-treated mast cells were stimulated to release histamine. A reduction in histamine release by the treated cells compared to the untreated cells indicates stabilisation of the membrane. The compounds were assessed for their ability to relax smooth muscle in vitro. Intestinal smooth muscle was stimulated to contract, using calcium chloride and subsequently treated with the compounds, relaxation of the contraction was measured for each compound. The effects of the compounds were also studied on relaxation of guinea-pig tracheal muscle. In the rat paw oedema test, the drugs were administered systemically prior to inducing inflammation by the injection of carageenan below the plantar aponeurosis of the hind paw. The volume of the paw was determined both before and after treatment as an index of oedema. In the mouse ear oedema test, the drugs were administered topically prior to inducing inflammation by the topical application of arachidonic acid. The width of the ear was determined both before and after treatment as an index of oedema.
The buffered salt solution (BSS) was prepared in advance (NaCl 137 mM; KCl 2.7 mM; MgCl2 1.0 mM; CaCl2 0.5 mM, NaH2PO4 0.4 mM; Glucose 5.6 mM; HEPES 10 mM). This was dispensed into test tubes and heated to 37° C., each test tube contained 4.5 ml BSS. The solvent blank was supplemented with 0.5% (v/v) dimethyl sulphoxide (DMSO) or 0.5% (v/v) distilled water (dH2O). The two positive controls were supplemented with 0.5% (v/v) dH2O/2×10^−5M disodium cromoglycate (DSCG) and 0.5% (v/v) DMSO/2×10^−5M DSCG. The test compounds' incubation tubes contained 2×10^−5M test compound/0.5% (v/v) DMSO. The basal release, maximum release and total histamine content incubation tubes contained no additions.
Female Wistar rats (200-300 g) were killed in an atmosphere of saturated CO2. Pre-warmed BSS (10 ml) was injected i.p. and the abdomen was massaged for 3 min. The BSS, with suspended mast cells and other cells, was aspirated following a mid-line incision. The aspirate was centrifuged for 5 min at 400 g and the supernatant removed. The cells were re-suspended in BSS, at 4° C., and centrifuged as before the cells were washed in this manner a total of three times. Following the final wash, the pelleted cells were stored at 4° C., for use as soon as possible.
The cells were re-suspended in 7 ml BSS. From this, 0.5 ml aliquots were transferred to each of the incubation tubes. After 10 min at 37° C. with gentle agitation, Compound 48/80 was added to a final concentration of […], in order to stimulate histamine release. The cell stimulation was stopped after 2 min by the addition of 0.5 ml ice cold BSS, the incubation tubes were transferred to an ice bath. The cell suspensions were centrifuged for 5 min at 400 g. The “total histamine content” tube was placed at 100° C. for 2 min prior to centrifugation. The supernatants were retained for histamine assay.
To 2 ml of supernatant from each tube was added 0.4 ml of 1M NaOH and 0.1 ml oPT (1% (w/v) in methanol). This was incubated at room temperature for 4 min. The reaction was stopped by the addition of 0.2 ml of 3M HCl. The supernatant from each incubation tube was assayed in duplicate and run simultaneously with a standard curve in the range 0-1000 ng/ml. The presence of the fluorescent product of the reaction was measured using a Shimazu RF-1501 spectrofluorophotometer set at λex=360 nm, λem=450 nm.
Each drug was tested on at least five animals (n=5). The results were expressed as a percentage of maximum, compound 48/80 induced, histamine release in the solvent blank sample. Each drug was compared to DSCG on the same tissues. The basal histamine release in untreated cells was noted, expressed as a percentage of the total histamine content of the cells in suspension. […]

ileum = assay: Smooth muscle effects: CaCl2 induced contractions of ileum; parameters: species or system Guinea pigs; details: for inhibition at 0.03 µM / inhibition at 0.1 µM / inhibition at 0.3 µM / inhibition at 1 µM / inhibition at 3 µM / inhibition at 10 µM: Cavia porcellus, read-out: Percentage Inhibition of CaCl2 Induced Contractions
Protocol: as §1
(§2) Guinea pigs (350 g approx.), of either sex, were killed in an atmosphere of saturated CO2. The abdomen was opened by a mid-line incision and the small intestine was removed. The trachea was removed and sectioned between the cartilage rings, which were then split through.
(§3) Segments of ileum (1-1.5 cm) were suspended in a high potassium, no calcium Krebs buffer (NaCl 160.44 mM); KCl 45 mM; MgCl2 0.54 mM; NaH2PO4 0.89 mM; NaH2CO3 24.9 mM; Glucose 11.1 mM). Tracheal sections were suspended in normal Krebs buffer (NaCl […]; KCl 4.7 mM; CaCl2 2.5 mM; MgCl2 0.54 mM; NaH2PO4 0.89 mM; NaHCO3 24.9 mM; Glucose 11.1 mM). The solutions were maintained at 37° C. by a jacketed organ bath and gassed with 95% O2 and 5% CO2. The tissues were anchored by thread to the bottom of the organ bath and suspended from force displacement transducers under a resting tension of 1 g approx. in the case of ileum and 4 g approx. in the case of trachea. Isotonic contractions were recorded using a MacLab/4e system in conjunction with the Chart 3.3.1 software package. Surplus tissue was stored at 4° C. in Krebs buffer, for a maximum of 48 hours.
(§4) Four segments of tissue were suspended and observed concurrently. Contractions were initiated by the addition of 25 μl of 1M CaCl2 (a final concentration of 2.5 mM). The contractions stabilized with time, 10-15 min, and could be maintained for up to 45 min. from the addition of the CaCl2. The tracheal sections were allowed to develop spontaneous resting tension over a period of 30 mins.
Stock solutions of drug were prepared at 10^−3M in 50% (v/v) DMSO. These were diluted to give; 10^−4M in 5% (v/v) DMSO and 10^−5M in 0.5% (v/v) DMSO. In cases of poor solubility the 10^−3M stock was made up in higher concentrations of DMSO. Solvent ‘blank’ solutions were prepared containing 50%, 5% and 0.5% (v/v) DMSO (or as appropriate). […] A second cumulative dose-response assay was carried out using DMSO ‘blank’ solutions only.
(§5) Each drug was tested, in duplicate, on at least three different animals (n=3). The results were expressed as percentage inhibition of the CaCl2 induced contraction in the case of ideal tissue and percentage relaxation in the case of tracheal tissue, for each tissue, at each concentration of drug in DMSO. The effect of DMSO, for each tissue at each concentration, was subtracted from the effect of the drug in DMSO, to give the effect of the drug alone. A log dose vs. response curve was plotted for each drug using the mean and the standard error of the mean for the cumulated results.

mouse ear oedema = assay: Mouse ear oedema model (arachidonic acid induced); format: in vivo, Laca mice; details: 300 μg per ear topically 30 min prior to 400 μg arachidonic acid; 1 hour after arachidonic acid; n=4
Protocol: as §1
The mouse ear oedema model was performed using Laca mice (25-35 g), of either sex. The animals were sedated with fentanyl/fluanisone (Hypnorm, Janssen). One ear was treated by the topical application of one of a range of test compounds, indomethacin or dexamethasone (all at 300 μg ear in acetone) drug. After 30 min, oedema was induced by the topical application of arachidonic acid (10 μl at […] in acetone). The thickness of each ear was measured, both before and 60 min after the induction of oedema, using a micrometer screw gauge. Ear oedema was calculated by comparing the ear width before and after induction of oedema and expressed as percentage normal.
Responses of the mouse ear to single doses of a range of compounds compared to the response to indomethacin and dexamethasone, each at a dose of 300 μg per ear administered topically 30 min prior to administration of 400 μg of arachidonic acid. Values are expressed as the percentage increase in ear thickness 1 hour after administration of arachidonic acid (all n=4, solvent controls (n=8)).

trachea = assay: Smooth muscle effects: spontaneous tone of tracheal sections; parameters: species or system Guinea pigs; details: guinea pig trachea, percentage relaxation; for inhibition at 3 µM / inhibition at 10 µM: Cavia porcellus
Protocol: as §1, §2, §3, §4
Stock solutions of drug were prepared at 10^−3M in 50% (v/v) DMSO. These were diluted to give; 10^−4M in 5% (v/v) DMSO and 10^−5M in 0.5% (v/v) DMSO. In cases of poor solubility the 10^−3M stock was made up in higher concentrations of DMSO. Solvent ‘blank’ solutions were prepared containing 50%, 5% and 0.5% (v/v) DMSO (or as appropriate). A cumulative dose-response assay was carried out in the range 5×10^−8M to 10^−5M. A second cumulative dose-response assay was carried out using DMSO ‘blank’ solutions only.
as §5

[1] = 3 × 10^−6 M, guinea pig ileum, DMSO effect subtracted
[2] = 10^−5 M, guinea pig ileum, DMSO effect subtracted

| SMILES | percentage increase in ear thickness (Mean %) (mouse ear oedema) [%] | inhibition at 20 µM (mast cells) [%] | inhibition at 3 µM (trachea; 3 × 10^−6 M) [%] | inhibition at 10 µM (trachea; 10^−5 M) [%] | inhibition at 3 µM (ileum; [1]) [%] | inhibition at 10 µM (ileum; [2]) [%] | also measured |
| --- | --- | --- | --- | --- | --- | --- | --- |
| C=CCN(C1CCc2ccccc21)C1CC(=O)c2ccccc21 (stereo not drawn) [Compound 5C6, 3-(N-prop-2-enyl-N-1-indanylamino)-indan-1-one] | 52.0 | – | – | – | – | – | Percentage Inhibition of Histamine Release (mast cells): 77.77%; inhibition at 0.03 µM (ileum): -1%; inhibition at 0.1 µM (ileum): 0.02%; inhibition at 0.3 µM (ileum): 0.36%; inhibition at 1 µM (ileum): 1.31%; inhibition at 3 µM (ileum): 8.84%; inhibition at 10 µM (ileum): 20.9% |
| C=CCN(C1Cc2ccccc2C1)C1CC(=O)c2ccccc21 (stereo not drawn) [Compound 6C7, 3-(N-prop-2-enyl-N-2-indanylamino)-indan-1-one] | 71.5 | 89.5 | – | – | – | – | inhibition at 0.03 µM (ileum): 1.16%; inhibition at 0.1 µM (ileum): 3.15%; inhibition at 0.3 µM (ileum): 4.52%; inhibition at 1 µM (ileum): 5.36%; inhibition at 3 µM (ileum): 10.7%; inhibition at 10 µM (ileum): 21.8% |
| CC(=O)N(C1CCc2ccccc21)C1CC(=O)c2ccccc21 (stereo not drawn) [Compound 5C9, N-1-Indanyl-N-3-indan-1-onylethanamide] | – | 14.3 | 2.64 | 2.38 | 9.06 | 18.3 | – |
| C=CCN(C1CC(=O)c2ccccc21)[C@H]1CCc2ccccc21 (stereo partly drawn) [5C6 TS] | – | 75.2 | 1.63 | 2.71 | – | 19.4 | Percentage Inhibition of CaCl2 Induced Contractions (ileum; [1]): 5.29% |
| COc1ccc2c(c1)c(CC(=O)O)c(C)n2C(=O)c1ccc(Cl)cc1 [Indomethacin, reference compound] | 39.6 | – | – | – | – | – | – |
| C=CCN(C1CC(=O)c2ccccc21)[C@H]1CCc2ccccc21 (stereo partly drawn) [5C6 BS] | – | – | – | – | – | – | Percentage Inhibition of Histamine Release (mast cells): 80.29%; Percentage Inhibition of Spontaneous Tone (trachea; 3 × 10^−6 M): 2.03%; Percentage Inhibition of Spontaneous Tone (trachea; 10^−5 M): 4.09%; Percentage Inhibition of CaCl2 Induced Contractions (ileum; [1]): 13.66%; Percentage Inhibition of CaCl2 Induced Contractions (ileum; [2]): 31.47% |
| CN(C1Cc2ccccc2C1)C1CC(=O)c2ccccc21 (stereo not drawn) [Compound 6C6, 3-(N-methyl-N-2-indanylamino)-indan-1-one] | 73.0 | 68 | – | – | 12.6 | 22.9 | inhibition at 0.3 µM (ileum; 3 × 10^−7 M, guinea pig ileum, DMSO effect subtracted): 4.64%; inhibition at 0.03 µM (ileum; 3 × 10^−8 M, guinea pig ileum, DMSO effect subtracted): 0.15%; inhibition at 1 µM (ileum; 10^−6 M, guinea pig ileum, DMSO effect subtracted): 9.01%; inhibition at 0.1 µM (ileum; 10^−7 M, guinea pig ileum, DMSO effect subtracted): 2.75% |
| CC(=O)N(C1Cc2ccccc2C1)C1CC(=O)c2ccccc21 (stereo not drawn) [Compound 6C11, N-2-Indanyl-N-3-indan-1-onylethanamide] | 26.0 | 4.26 | – | – | 8 | 12.5 | – |
| C=CCN(C1CCc2ccccc21)C1CC(=O)c2ccccc21 (stereo not drawn) [5C6 TR] | – | 80 | 1.5 | 4.97 | – | – | – |
| C[C@@H]1C[C@H]2[C@@H]3CCC4=CC(=O)C=C[C@]4(C)[C@@]3(F)[C@@H](O)C[C@]2(C)[C@@]1(O)C(=O)CO [Dexamethasone, reference compound] | 37.9 | – | – | – | – | – | – |

— patent US6423752B1, “Indane dimer compounds with smooth muscle relaxing and/or mast cell stabilizing and/or anti-inflammatory activity” (Venantius Limited, priority 1995, dated 2002)
